In article PMC3827738 (Biochimica et biophysica acta, 2010):

Target: cytochrome bo3 (cbo3), ubiquinol oxidase (Escherichia coli, UniProt P0ABI8)
Type: biochemical

cytochrome bo3 (cbo3), ubiquinol oxidase, sequence (P0ABI8 whole entry): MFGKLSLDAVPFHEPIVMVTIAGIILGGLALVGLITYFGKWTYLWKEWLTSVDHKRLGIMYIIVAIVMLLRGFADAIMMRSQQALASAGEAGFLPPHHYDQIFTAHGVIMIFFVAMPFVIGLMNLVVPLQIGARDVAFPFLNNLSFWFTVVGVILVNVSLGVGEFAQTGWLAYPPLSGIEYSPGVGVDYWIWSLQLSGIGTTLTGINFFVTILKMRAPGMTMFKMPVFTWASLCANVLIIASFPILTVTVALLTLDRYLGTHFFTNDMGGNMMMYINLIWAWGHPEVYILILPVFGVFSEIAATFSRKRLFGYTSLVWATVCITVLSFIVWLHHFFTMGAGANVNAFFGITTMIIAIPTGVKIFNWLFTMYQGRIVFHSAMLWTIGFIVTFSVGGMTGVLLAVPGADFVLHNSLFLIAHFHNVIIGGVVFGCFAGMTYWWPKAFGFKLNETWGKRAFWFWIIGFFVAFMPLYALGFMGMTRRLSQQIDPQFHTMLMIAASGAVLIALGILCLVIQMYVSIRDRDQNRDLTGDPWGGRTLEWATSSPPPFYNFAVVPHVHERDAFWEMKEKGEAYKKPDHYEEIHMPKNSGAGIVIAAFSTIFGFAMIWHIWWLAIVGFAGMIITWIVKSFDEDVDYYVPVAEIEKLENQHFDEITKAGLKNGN
cytochrome bo3 (cbo3), ubiquinol oxidase, sequence (P0ABJ1 25-315 partner): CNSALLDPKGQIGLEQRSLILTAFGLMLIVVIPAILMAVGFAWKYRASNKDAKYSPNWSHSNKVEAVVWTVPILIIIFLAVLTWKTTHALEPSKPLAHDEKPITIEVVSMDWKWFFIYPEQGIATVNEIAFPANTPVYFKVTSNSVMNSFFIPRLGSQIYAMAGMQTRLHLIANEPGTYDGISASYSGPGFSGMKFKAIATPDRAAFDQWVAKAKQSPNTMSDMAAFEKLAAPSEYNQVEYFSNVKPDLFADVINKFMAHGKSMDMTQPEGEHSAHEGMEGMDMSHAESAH
cytochrome bo3 (cbo3), ubiquinol oxidase, sequence (P0ABJ3 whole entry partner): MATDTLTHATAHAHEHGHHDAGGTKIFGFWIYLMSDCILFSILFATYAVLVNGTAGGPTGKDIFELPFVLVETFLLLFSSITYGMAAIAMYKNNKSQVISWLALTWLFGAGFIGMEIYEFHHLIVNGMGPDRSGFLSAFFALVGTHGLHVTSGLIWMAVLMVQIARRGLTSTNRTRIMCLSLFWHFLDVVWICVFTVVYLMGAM
cytochrome bo3 (cbo3), ubiquinol oxidase, sequence (P0ABJ6 whole entry partner): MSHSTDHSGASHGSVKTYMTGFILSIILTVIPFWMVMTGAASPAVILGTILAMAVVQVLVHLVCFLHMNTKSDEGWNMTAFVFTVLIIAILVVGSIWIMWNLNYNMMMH

## CCCCCCCc1cc(O)c2ccccc2[n+]1[O-] [2-n-Heptyl-4-hydroxyquinoline N-oxide]
  IC50: 28.7 ± 2.1 µM
